Marks after values point to notes of the source that are not given here.

Consider 3 compounds from patent US10175230B2, “Use of biomarkers for evaluating the effectiveness of active ingredients” (LABORATOIRES EXPANSCIENCE, priority 2013, dated 2019).

Test [1] has as its system hyaluronic acid. The test is described as follows: Production of hyaluronic acid by keratinocytes, ELISA of supernatants. The test is classed as cell-based, human. The note with it: 10^−7 M, 24 hours, positive reference. As for the experimental part:
Normal human epidermal keratinocytes were incubated in the presence of 0.005% and 0.05% avocado perseose or 10^-7 M retinoic acid (all-trans-retinoic acid; Sigma), positive reference.
After 24 hours of incubation, hyaluronic acid produced by the keratinocytes was assayed in the cultured supernatants with an ELISA (Tebu). The quantity of hyaluronic acid measured was related to the number of living cells estimated by means of a neutral red assay.

Test [2] has as its system PAD1. The test is described as follows: Gene expression of peptidylarginine deiminase (PAD1) by RT-PCR. It is filed as cell-based, human. The conditions noted are these: 10^−7 M, 48 hours, positive reference. On the procedure:
Normal human epidermal keratinocytes, cultured in differentiation-inducing medium (supplemented with Ca++), were incubated for 48 hours in the presence of 0.005% and 0.05% avocado perseose or 10^-7M vitamin D3 (1α,25-dihydroxyvitamin D3; Sigma), positive reference.
At the conclusion of the treatment, the RNA were extracted and the gene expression of PAD1 was evaluated by RT-PCR; the reference gene GAPDH was used to normalize the results.

Test [3] concerns Ehrlich ascites carcinoma tumor cells. The conditions noted are these: perseitol associated with a potassium ion; Shibuya et al. 1999; cited from earlier work.

With `CC1=C(/C=C/C(C)=C/C=C/C(C)=C/C(=O)O)C(C)(C)CCC1` [Retinoic acid, all-trans-retinoic acid], in test [1], the “Hyaluronic acid (ng/ml/living cells)” value was found to be 544.024 ± 34.026 ng/ml/living cells and the “Increase of hyaluronic acid produced versus control cells” value is on record as “+119% ***”.
On to `C=C1/C(=C\C=C2/CCC[C@]3(C)[C@@H]([C@H](C)CCCC(C)(C)O)CC[C@@H]23)C[C@@H](O)C[C@@H]1O` [Vitamin D3, 1α,25-dihydroxyvitamin D3], for which, in test [2], the “PAD1 (Relative Quantity normalized by GAPDH)” value is recorded as 2.66 and the “Stimulation of PAD1 gene expression versus control cells” value was “+166% **”.
Turning to `OCC(O)C(O)C(O)C(O)C(O)CO` (centres unmarked) [perseitol, Perseitol], in test [3], the “Incorporation of 3H-leucine” value is given as “inhibits”.
